The values that follow come from patent publication US4104389A, “Antiallergic pyrido[2,1-b]quinazolin-ones” (Warner-Lambert Company, priority 1977, dated 1978).

Read-outs that look alike come from different tables or passages of the source.

The subject of assay [1] is antibody-antigen reactions (PCA). As to the kind of experiment: PCA (rat), procedure of Herzig; reduction of allergic responses to antigen challenge. The format is in vivo. On the procedure: When tested in accordance with the procedure of Herzig [Immunopharmacology, M. E. Rosenthale and H. C. Mansmann, Eds., John Wiley and Son, N.Y., 1975], these compounds as shown in Table I may be administered orally, parenterally, or by aerosol at a dose of 0.005-20mg/kg. Compounds of this invention are useful in the management of allergic reactions such as bronchial asthma.

For assay [2] the following is noted: Netherlands Pat. No. 6,414,717; cited from earlier work.
[3] abbreviates: rat, iv., read-out: ED50 - PCA (rat) iv.

As a reminder, the ED50 is the dose at which the effect has come halfway, by size or by number of responders. As for `O=C(O)c1ccc2nc3ccccc3c(=O)n2c1` [Example 1, 11-oxo-11H-pyrido[2,1-b]quinazoline-8-carboxylic acid], the “activity when given intravenously” value in assay [1] (intravenously) was “active”. Also, in assay [1] (orally), the “activity when given orally” value was “active”. The ED50 was determined as 2 mg/kg in assay [1] (rat, ip., read-out: ED50 - PCA (rat) ip.); 0.2 mg/kg in assay [1] (setting [3]); 2 mg/kg in assay [1] (rat, po., read-out: ED50 - PCA (rat) po.).

Consider `O=C(O)c1cccn2c(=O)c3ccccc3nc12` [Example 799], for which the anti-inflammatory action result in assay [2] is “possesses anti-inflammatory action”. In addition, the “activity compared with isomers of the invention” value in assay [1] (comparison in words, Table I) is “less active”. Also, the “PCA (rat) inhibition, ip.” value in assay [1] (rat, ip., 10mg/kg) came to 21%. Further, the “PCA (rat) activity, po., in words” value in assay [1] (rat, po., 10mg/kg) was “inactive”.

Turning to `O=C(O)c1cc(=O)c2c(OCC(O)COc3cccc4oc(C(=O)O)cc(=O)c34)cccc2o1` [Intal], the “ED50 - PCA (rat) ip., in words” value in assay [1] (rat, ip., dose not given) is recorded as “inact”. For the same compound, in assay [1] (setting [3]), the ED50 is 1 to 2 mg/kg. Further, in assay [1] (rat, po., dose not given), the “ED50 - PCA (rat) po., in words” value is “inactive”.
